Results: PubChem BioAssay (NCI)
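A five-concentration, 48-hour dose response in 96-well plates underlies each endpoint, interpolated linearly between surrounding concentrations. TGI denotes the concentration required for complete inhibition of growth.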

Tests used:
Test in all cases: growth of human tumour cells (NCI), 48 h
NCI-H23 lung = test system: NCI-H23 lung
SN12C renal = test system: SN12C renal
COLO 205 colon = test system: COLO 205 colon
SR leukemia = test system: SR leukemia
HOP-62 NSCLC = test system: HOP-62 NSCLC
786-0 renal = test system: 786-0 renal
M14 melanoma = test system: M14 melanoma
ACHN renal = test system: ACHN renal
HT29 colon = test system: HT29 colon
HOP-92 NSCLC = test system: HOP-92 NSCLC
SF-295 CNS = test system: SF-295 CNS
UACC-257 melanoma = test system: UACC-257 melanoma
TK-10 renal = test system: TK-10 renal
UACC-62 melanoma = test system: UACC-62 melanoma
RPMI-8226 leukemia = test system: RPMI-8226 leukemia
PC-3 prostate = test system: PC-3 prostate
LOX IMVI melanoma = test system: LOX IMVI melanoma
HCC-2998 colon = test system: HCC-2998 colon
U251 CNS = test system: U251 CNS
MOLT-4 leukemia = test system: MOLT-4 leukemia
SF-539 CNS = test system: SF-539 CNS
OVCAR-4 ovarian = test system: OVCAR-4 ovarian
SK-MEL-28 melanoma = test system: SK-MEL-28 melanoma
HS 578T breast = test system: HS 578T breast
MDA-MB-231 breast = test system: MDA-MB-231 breast
DU-145 prostate = test system: DU-145 prostate
K-562 leukemia = test system: K-562 leukemia
EKVX NSCLC = test system: EKVX NSCLC
UO-31 renal = test system: UO-31 renal
KM12 colon = test system: KM12 colon
NCI-H460 lung = test system: NCI-H460 lung
NCI/ADR-RES ovarian = test system: NCI/ADR-RES ovarian
NCI-H226 lung = test system: NCI-H226 lung
OVCAR-3 ovarian = test system: OVCAR-3 ovarian
NCI-H522 lung = test system: NCI-H522 lung
SNB-19 CNS = test system: SNB-19 CNS
BT-549 breast = test system: BT-549 breast
SW-620 colon = test system: SW-620 colon
SNB-75 CNS = test system: SNB-75 CNS
CCRF-CEM leukemia = test system: CCRF-CEM leukemia
T-47D breast = test system: T-47D breast
MDA-MB-435 = test system: MDA-MB-435
HCT-116 colon = test system: HCT-116 colon
MDA-N = test system: MDA-N
SF-268 CNS = test system: SF-268 CNS
MCF7 breast = test system: MCF7 breast
IGROV1 ovarian = test system: IGROV1 ovarian
A498 renal = test system: A498 renal
SK-OV-3 ovarian = test system: SK-OV-3 ovarian
OVCAR-5 ovarian = test system: OVCAR-5 ovarian
SK-MEL-5 melanoma = test system: SK-MEL-5 melanoma
CAKI-1 renal = test system: CAKI-1 renal
OVCAR-8 ovarian = test system: OVCAR-8 ovarian
RXF 393 renal = test system: RXF 393 renal
HL-60(TB) leukemia = test system: HL-60(TB) leukemia
A549 NSCLC = test system: A549 NSCLC
SK-MEL-2 melanoma = test system: SK-MEL-2 melanoma
HCT-15 colon = test system: HCT-15 colon
MALME-3M melanoma = test system: MALME-3M melanoma

SMILES: O=C(O)c1nc(-c2ccccc2)[nH]c1C(=O)O
- TGI (NCI-H23 lung): 31.8 µM
- TGI (SN12C renal): 26.6 µM
- TGI (COLO 205 colon): 31.7 µM
- TGI (SR leukemia): 2.36 µM
- TGI (HOP-62 NSCLC): 32.6 µM
- TGI (786-0 renal): 22.5 µM
- TGI (M14 melanoma): 25.2 µM
- TGI (ACHN renal): 30.7 µM
- TGI (HT29 colon): 20.2 µM
- TGI (HOP-92 NSCLC): 32.4 µM
- TGI (SF-295 CNS): 30.9 µM
- TGI (UACC-257 melanoma): 30.3 µM
- TGI (TK-10 renal): 28.8 µM
- TGI (UACC-62 melanoma): 32.4 µM
- TGI (RPMI-8226 leukemia): 4.14 µM
- TGI (PC-3 prostate): 11.6 µM
- TGI (LOX IMVI melanoma): 9.47 µM
- TGI (HCC-2998 colon): 12.8 µM
- TGI (U251 CNS): 8.33 µM
- TGI (MOLT-4 leukemia): 9.64 µM
- TGI (SF-539 CNS): 22.7 µM
- TGI (OVCAR-4 ovarian): 32.1 µM
- TGI (SK-MEL-28 melanoma): 30.2 µM
- TGI (HS 578T breast): > 61.2 µM
- TGI (MDA-MB-231 breast): 11.3 µM
- TGI (DU-145 prostate): 28.2 µM
- TGI (K-562 leukemia): 15.3 µM
- TGI (EKVX NSCLC): 33 µM
- TGI (UO-31 renal): 24.8 µM
- TGI (KM12 colon): 14.6 µM
- TGI (NCI-H460 lung): 29.2 µM
- TGI (NCI/ADR-RES ovarian): > 82.8 µM
- TGI (NCI-H226 lung): 33.1 µM
- TGI (OVCAR-3 ovarian): 26.4 µM
- TGI (NCI-H522 lung): 32 µM
- TGI (SNB-19 CNS): 25.1 µM
- TGI (BT-549 breast): 35.9 µM
- TGI (SW-620 colon): 6.78 µM
- TGI (SNB-75 CNS): 33.6 µM
- TGI (CCRF-CEM leukemia): 3.04 µM
- TGI (T-47D breast): 33.1 µM
- TGI (MDA-MB-435): 21.3 µM
- TGI (HCT-116 colon): 16 µM
- TGI (MDA-N): 24.4 µM
- TGI (SF-268 CNS): 34.8 µM
- TGI (MCF7 breast): 15.7 µM
- TGI (IGROV1 ovarian): 28.2 µM
- TGI (A498 renal): 29.1 µM
- TGI (SK-OV-3 ovarian): 32.4 µM
- TGI (OVCAR-5 ovarian): 31.7 µM
- TGI (SK-MEL-5 melanoma): 28.6 µM
- TGI (CAKI-1 renal): 27.5 µM
- TGI (OVCAR-8 ovarian): 29.7 µM
- TGI (RXF 393 renal): 26.5 µM
- TGI (HL-60(TB) leukemia): 0.49 µM
- TGI (A549 NSCLC): 29.3 µM
- TGI (SK-MEL-2 melanoma): 21.3 µM
- TGI (HCT-15 colon): 38.8 µM
- TGI (MALME-3M melanoma): 30.6 µM
